# Reference: patent publication EP4813463A2, “TYK2 INHIBITORS AND COMPOSITIONS AND METHODS THEREOF” (Lynk Pharmaceuticals Co. Ltd., priority 2023, dated 2024)
# Molecular target: T1, TYK2-JH2 domain (Homo sapiens, UniProt P29597)
# T1 construct: JAK1-JH2 domain or TYK2-JH2 domain enzyme in assay buffer
# Experiment: Binding activity test for JH2 domain of TYK2 (Tb-antibody/tracer FRET)
# Conditions: JH2 domain enzyme; 60 min at 25°C, then 4°C overnight; read-out: TYK2 JH2 Binding IC50
# Procedure: Binding Activity test for JH2 domain of JAK1 and TYK2 […] Add 8μL/well in echo source plate, echo will add 75nL/well with 3-fold serial dilution for 11 points in assay plate. 75nL DMSO for high control and low control. […] For low control, add 5μL/well assay buffer. And then spin down at 1000rpm and centrifuge for 30 seconds. After enzyme system prepared, add 5μL of Tb-antibody solution into each well of assay plate. Spin down at 1000 rpm and centrifuge for 30sec. After Tb-antibody added, also add 5μL of tracer into the assay plate. Spin down at 1000rpm and centrifuge for 30sec. Incubate for […] at 25°C firstly and then continue to incubate the plate at 4°C overnight. Read by envision in FRET mode. The Luminescence value was recorded by a multi-label reader Envision (PerkinElmer). […] Table 2. IC50 on JH2 domain activity (nM)
# T1 sequence (P29597 589-875 limits assumed): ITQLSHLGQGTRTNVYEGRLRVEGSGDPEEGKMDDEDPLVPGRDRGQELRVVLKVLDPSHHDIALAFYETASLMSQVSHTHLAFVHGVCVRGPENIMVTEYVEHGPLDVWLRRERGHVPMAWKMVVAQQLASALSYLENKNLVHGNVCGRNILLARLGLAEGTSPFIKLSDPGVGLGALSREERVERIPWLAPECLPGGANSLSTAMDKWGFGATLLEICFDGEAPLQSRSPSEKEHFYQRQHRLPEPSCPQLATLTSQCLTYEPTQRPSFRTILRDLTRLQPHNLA
row,Structure (SMILES),IC50
1,"COC(=O)c1cnc(NC(=O)C2CC2)cc1Nc1nn(C)c2ccc(C3(C(F)(F)F)CC3)c(OC)c12 [Example 161, Methyl 6-(cyclopropanecarboxamido)-4-((4-methoxy-1-methyl-5-(1-(trifluoromethyl)cyclopropyl)-1H-indazol-3-yl)amino)nicotinate]",0.568 nM
2,"CCC(=O)c1cnc(NC(=O)C2CC2)nc1Nc1cccc(-c2cnn(C)n2)c1OC [Example 158, N-(4-((2-methoxy-3-(2-methyl-2H-1,2,3-triazol-4-yl)phenyl)amino)-5-propionylpyrimidin-2-yl)cyclopropanecarboxamide]",0.496 nM
3,"[2H]C([2H])([2H])CC(=O)c1cnc(NC(=O)C2CC2)cc1Nc1nn(C)c2ccc(Cl)c(OC)c12 [Example 147, N-(4-((5-chloro-4-methoxy-1-methyl-1H-indazol-3-yl)amino)-5-(propanoyl-3,3,3-d3)pyridin-2-yl)cyclopropanecarboxamide]",0.146 nM
4,"CCC(OC)c1ccc2c(c(Nc3cc(NC(=O)C4CC4)ncc3C(=O)OC)nn2C)c1OC (centres unmarked) [Example 121, Methyl 6-(cyclopropanecarboxamido)-4-((4-methoxy-5-(1-methoxypropyl)-1-methyl-1H-indazol-3-yl)amino)nicotinate]",0.405 nM
5,"COC(=O)c1cnc(NC(=O)C2CC2)cc1Nc1c2c(OC)c(C(C)C(F)(F)F)ccc2nn1C (centres unmarked) [Example 124, Methyl 6-(cyclopropanecarboxamido)-4-((4-methoxy-2-methyl-5-(1,1,1-trifluoropropan-2-yl)-2H-indazol-3-yl)amino)nicotinate]",90.3 nM
6,"COC(=O)c1cnc(NC(=O)C2CC2)cc1Nc1nn(C)c2ccc(C#N)c(OC)c12 [Example 126, Methyl 4-((5-cyano-4-methoxy-1-methyl-1H-indazol-3-yl)amino)-6-(cyclopropanecarboxamido)nicotinate]",1.79 nM
7,"COC(=O)c1cnc(NC(=O)C2CC2)cc1Nc1nn(C)c2ccc([C@H](OCOP(=O)(O)O)C(F)(F)F)c(OC)c12 [Example 170, Sodium (S)-(1-(3-((2-(cyclopropanecarboxamido)-5-(methoxycarbonyl)pyridin-4-yl)amino)-4-methoxy-1-methyl-1H-indazol-5-yl)-2,2,2-trifluoroethoxy)methyl phosphate]",0.074 nM
8,"COC(=O)c1cnc(NC(=O)C2CC2)cc1Nc1ccn2ncc(C(OC)C(F)(F)F)c2c1OC (centres unmarked) [Example 131, Methyl 6-(cyclopropanecarboxamido)-4-((4-methoxy-3-(2,2,2-trifluoro-1-methoxyethyl)pyrazolo[1,5-a]pyridin-5-yl)amino)nicotinate]",12.7 nM
9,"CCC(F)c1cnc(NC(=O)C2CC2)cc1Nc1nn(C)c2ccc([C@H](OC)C(F)(F)F)c(OC)c12 (stereo partly drawn) [Example 144, N-(5-(1-fluoropropyl)-4-((4-methoxy-1-methyl-5-((S)-2,2,2-trifluoro-1-methoxyethyl)-1H-indazol-3-yl)amino)pyridin-2-yl)cyclopropanecarboxamide]",42.1 nM
10,"COC(=O)c1nnc(NC(=O)C2CC2)cc1Nc1nn(C)c2ccc(C(OC)C(F)(F)F)c(OC)c12 (centres unmarked) [Example 101, Methyl 6-(cyclopropanecarboxamido)-4-((4-methoxy-1-methyl-5-(2,2,2-trifluoro-1-methoxyethyl)-1H-indazol-3-yl)amino)pyridazine-3-carboxylate]",> 298 nM
11,"CCOC(c1ccc2c(c(Nc3cc(NC(=O)C4CC4)ncc3C(=O)OC)nn2C)c1OC)C(F)(F)F (single isomer, unassigned) [Example 106A, Methyl (R*)-6-(cyclopropanecarboxamido)-4-((5-(1-ethoxy-2,2,2-trifluoroethyl)-4-methoxy-1-methyl-1H-indazol-3-yl)amino)nicotinate]",4.31 nM
12,"COC(=O)c1cnc(NC(=O)C2CC2)cc1Nc1nn(COCC[Si](C)(C)C)c2ccc(C(OC)C(F)(F)F)c(OC)c12 (centres unmarked) [Example 104, Methyl 6-(cyclopropanecarboxamido)-4-((4-methoxy-5-(2,2,2-trifluoro-1-methoxyethyl)-1-((2-(trimethylsilyl)ethoxy)methyl)-1H-indazol-3-yl)amino)nicotinate]",13.7 nM
13,"COC(=O)c1cnc(NC(=O)C2CC2)cc1Nc1nn(C)c2ccc(C(OC)C(C)(F)F)c(OC)c12 (single isomer, unassigned) [Example 115B, Methyl (R*)-6-(cyclopropanecarboxamido)-4-((5-(2,2-difluoro-1-methoxypropyl)-4-methoxy-1-methyl-1H-indazol-3-yl)amino)nicotinate]",1.22 nM
14,"COC(=O)c1cnc(NC(=O)C2CC2)cc1Nc1cnn2ccc(C3CCCO3)c(OC)c12 (centres unmarked) [Example 99, Methyl 6-(cyclopropanecarboxamido)-4-((4-methoxy-5-(tetrahydrofuran-2-yl)pyrazolo[1,5-a]pyridin-3-yl)amino)nicotinate]",1.79 nM
15,"[2H]C([2H])([2H])CC(=O)c1cnc(NC(=O)C2CC2)cc1Nc1ncc2cnn(CC(C)(F)F)c2c1OC [Example 155, N-(4-((1-(2,2-difluoropropyl)-7-methoxy-1H-pyrazolo[4,3-c]pyridin-6-yl)amino)-5-(propanoyl-3,3,3-d3)pyridin-2-yl)cyclopropanecarboxamide]",0.891 nM
16,"CCOC(c1ccc2c(c(Nc3cc(NC(=O)C4CC4)ncc3C(=O)OC)nn2C)c1OC)C(F)(F)F (racemic) [Example 106, Methyl 6-(cyclopropanecarboxamido)-4-((5-(1-ethoxy-2,2,2-trifluoroethyl)-4-methoxy-1-methyl-1H-indazol-3-yl)amino)nicotinate]",1.31 nM
17,"COC(=O)c1cnc(NC(=O)C2CC2)cc1Nc1ncn2ccc(C)c(OC)c12 [Example 103, Methyl 6-(cyclopropanecarboxamido)-4-((8-methoxy-7-methylimidazo[1,5-a]pyridin-1-yl)amino)nicotinate]",5.84 nM
18,"COC(=O)c1cnc(NC(=O)C2CC2)cc1Nc1nccc2c1N(C)[C@@H](C)c1nn(C)nc1-2 [Example 109, Methyl (S)-6-(cyclopropanecarboxamido)-4-((2,4,5-trimethyl-4,5-dihydro-2H-[1,2,3]triazolo[4,5-c][1,7]naphthyridin-6-yl)amino)nicotinate]",0.836 nM
19,"COC(=O)c1cnc(NC(=O)C2CC2)cc1Nc1nn(C)c2ccc(C(OC)C(F)(F)F)c(O)c12 (centres unmarked) [Example 149, Methyl 6-(cyclopropanecarboxamido)-4-((4-hydroxy-1-methyl-5-(2,2,2-trifluoro-1-methoxyethyl)-1H-indazol-3-yl)amino)nicotinate]",0.747 nM
20,"[2H]C([2H])([2H])O[C@H](c1ccc2c(c(Nc3cc(NC(=O)C4CC4)ncc3C(=O)OC)nn2C([2H])([2H])[2H])c1OC)C(F)(F)F [Example 53A, Methyl (R)-6-(cyclopropanecarboxamido)-4-((4-methoxy-1-(methyl-d3)-5-(2,2,2-trifluoro-1-(methoxy-d3)ethyl)-1H-indazol-3-yl)amino)nicotinate]",0.627 nM

# Same assay, conditions: read-out: TYK2 JH2 Binding IC50; JH2 domain enzyme; 60 min at 25°C, then 4°C overnight
row,Structure (SMILES),IC50
1,"[2H]C([2H])([2H])OC(=O)c1cnc(NC(=O)C2CC2)cc1Nc1ncc2ccn(C([2H])([2H])C([2H])([2H])[2H])c2c1OC([2H])([2H])[2H] [Example 61, Methyl-d3 6-(cyclopropanecarboxamido)-4-((1-(ethyl-d5)-7-(methoxy-d3)-1H-pyrrolo[3,2-c]pyridin-6-yl)amino) nicotinate]",1.36 nM
2,"COC(=O)c1cnc(NC(=O)[C@@H]2C[C@@H]2F)cc1Nc1nn(C)c2ccc(C(O)C(F)(F)F)c(OC)c12 (single isomer, unassigned) [Example 122B, Methyl 6-((1S,2S)-2-fluorocyclopropane-1-carboxamido)-4-((4-methoxy-1-methyl-5-((R*)-2,2,2-trifluoro-1-hydroxyethyl)-1H-indazol-3-yl)amino) nicotinate]",0.733 nM

# Test system: Ba/F3-FL-TYK2-P760L cells
# Experiment: Anti-proliferative assay in engineered Ba/F3 cells (Cell-Titer Glo, 72 h)
# Type: cell-based
# Conditions: Mus musculus, BaF3, 72 h, 72 h compound treatment, concentration that causes 50% growth inhibition, read-out: Baf3-FL-T2P760L
# Procedure: Dimerization domain of Tel protein fused with JAK kinase domain was permanently transduced into Ba/F3 cells, whose proliferation is dependent on JAK activity in the absence of IL-3 induction. These engineered Ba/F3-FL-TYK2-P760L cells were used to monitor JAK inhibitory activities of the compounds in the cellular. Ba/F3 cells were cultured in RPMI-1640 (Corning) containing 10% fetal bovine serum. Cells were seeded at 2000/well of white flat bottom 96-well plates. The well containing medium only was used as background control. After 24h growth, cells were treated with compounds. The test compounds were dissolved in DMSO to a stock concentration of 20 mM. 3-fold serially diluted compounds for 9 concentrations with top concentration of 20 µM was added into the each well. The final DMSO concentration was 0.1%. The cells continued to grow at 37°C in 5% CO2 for 72 h after compound treatment. The viability was measured by cellular ATP determination using the Cell-Titer Glo luciferase reagent (Promega). The Luminescence value was recorded by a multi-label reader Envision (PerkinElmer). Inhibition Rate was calculated relative to vehicle (DMSO) treated control wells using following formula: % Inhibition = 100−(RLU_compound−RLU_blank)/(RLU_control−RLU_blank) × 100% [formula] wherein • RLU_compound = the relative light unit of cells treated with test compounds • RLU_blank = the relative light unit of medium with DMSO only • RLU_control = the relative light unit of cells treated with DMSO only
# Table 4. Ba/F3-FL-TYK2-P760L Cells IC50 Values of Exemplary Compounds
row,Structure (SMILES),IC50
1,"COC(=O)c1cnc(NC(=O)C2CC2)cc1Nc1nn(C)c2ccc(C3(C(F)(F)F)CC3)c(OC)c12 [Example 161, Methyl 6-(cyclopropanecarboxamido)-4-((4-methoxy-1-methyl-5-(1-(trifluoromethyl)cyclopropyl)-1H-indazol-3-yl)amino)nicotinate]",74 nM
2,"CCC(=O)c1cnc(NC(=O)C2CC2)nc1Nc1cccc(-c2cnn(C)n2)c1OC [Example 158, N-(4-((2-methoxy-3-(2-methyl-2H-1,2,3-triazol-4-yl)phenyl)amino)-5-propionylpyrimidin-2-yl)cyclopropanecarboxamide]",68.4 nM
3,"[2H]C([2H])([2H])CC(=O)c1cnc(NC(=O)C2CC2)cc1Nc1nn(C)c2ccc(Cl)c(OC)c12 [Example 147, N-(4-((5-chloro-4-methoxy-1-methyl-1H-indazol-3-yl)amino)-5-(propanoyl-3,3,3-d3)pyridin-2-yl)cyclopropanecarboxamide]",23.8 nM
4,"CCC(F)(F)c1cnc(NC(=O)C2CC2)cc1Nc1nc2ccc(N3CC(OC)C3)cn2n1 [Example 183, N-(5-(1,1-Difluoropropyl)-4-((6-(3-methoxyazetidin-1-yl)-[1,2,4]triazolo[1,5-a]pyridin-2-yl)amino)pyridin-2-yl)cyclopropanecarboxamide]",14.5 nM
